Assay results as given in patent US20120040976A1, “SMALL MOLECULE IMMUNOMODULATORS FOR ALZHEIMER'S DISEASE” (HUMAN BIOMOLECULAR RESEARCH INSTITUTE, priority 2008, published 2012).

What was measured:
[1] = tested on: TLR3; experiment: TLR3 gene expression by qPCR in U-937 human monocytic cells treated with curcumins plus Aβ; format: cell-based
Experimental: (§1) Cell culture conditions for monocytic cell lines. Human and mouse monocyte cell lines are grown in RPMI-1640 medium with 10% fetal bovine serum (FBS), plus glutamine and pen/strep. For treatment with compounds (curcuminoids+/−Aβ), replicate sets of 0.5-1.0 mL cultures containing 1-2×10^6 cells are set up in the wells of 48-well tissue culture plates. Both replicate sets have at least one control well receiving no added curcuminoid to provide baseline expression controls for untreated, and Aβ-only treated cells. Remaining wells receive curcuminoid in a range of 10-fold serial dilutions in DMSO, typically from […] Cultures are incubated for 20-24 hours (“overnight”) at 37° C. in atmosphere with 5% CO2. After one overnight, to one of replicate sets of cultures is added Aβ (1-42) peptide to a final concentration of 5 μg/mL.
(§2) RNA isolation and cDNA synthesis. After the first overnight incubation in the presence of curcuminoid, cells from one replicate set of wells are collected by centifugation. RNAs are extracted from pelleted cells using miniprep column kits following manufacturer's protocol for animal cells. […] of total cellular RNA from each well is quantitated using a Nanodrop spectrophotometer, and first-strand total cDNA is prepared from 0.3-1.0 μg RNA by random-hexamer priming. Following the second 20 hr. incubation in the presence of Aβ, RNA extractions and cDNA synthesis are similarly performed.
(§3) Assay development. Gene-specific mRNA levels are determined using a real-time thermocycler, and by normalizing to expression of one or more control genes. Assays for quantifying mRNA levels are based on gene sequences reported in NCBI Genbank. PCR oligonucleotide primers are selected spanning introns to minimize the opportunity for amplication from any contaminating genomic DNA in the RNA preps. Oligonucleotides are typically tested and used at a concentration of 200 nM in qPCR reactions containing SYBR dye. Control reactions include template from cDNA synthesis reactions either + or − reverse transcriptase (RT), as well as no-template controls (ntc). All reactions are performed in triplicate. Reactions are typically run with 40 cycles of 95° C. (10 sec) and 58° C. (30 sec). Melt curves based on incremental 0.5° C. increases are determined for new assays to test for uniformity of amplified products. Reaction conditions are modified as needed depending on initial test results. ‘Working’ assays are selected based on clear RNA-dependent amplification and absence of product in ‘ntc’ reactions. The following assay primers are used: […]
(§4) qPCR reactions of cultured monocyte cDNAs. One μL total cellular cDNA per reaction is used in triplicate reactions for each test gene, and for each culture treatment. SYBR-Green reactions were run on a Continuous Fluorescence real-time thermocycler and analyzed. Cycle threshold (Ct) values are recorded for each replicate reaction, and are then averaged and normalized against mean Ct values from one or more control genes. Fold-expression differences relative to untreated cells are determined using the 2^−ΔΔCt method as previously described. Data from the curcumin concentration range are plotted in order to determine EC50 values (concentrations producing one-half maximal stimulant activity), which are used for comparisons of potency between different compounds. Data are also evaluated for each gene with regard to sensitivity, maximally effective concentration of curcuminoid, response to Aβ, and overall magnitude of fold-expression changes.
(§5) Data showing in vitro up-regulation of genes associated with Aβ phagocytosis in response to curcumins. Natural curcumins and synthetic analogs were tested in U-937 human monocyte cells in vitro for their ability to modulate expression of the genes MGAT3 and TLRs −2, −3, and −4. […]

[2] = Metabolic stability in human S9 fraction; format: in vitro ADME; conditions: read-out: Half life, t1/2 S9
[3] = tested on: MGAT3; experiment: MGAT3 transcription ratio, AD patient / control PBMCs (qPCR); format: cell-based, human; conditions: Aβ stimulation
Outline: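 Via qPCR on cultured human monocyte cDNA, curcuminoid-treated versus vehicle, with Aβ stimulation, in AD patient and control cells. SYBR-Green triplicate reactions; Ct averaged, normalised to control genes, fold change by 2^−ΔΔCt. EC50 taken from curcumin concentration-response data.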

[4] = tested on: TLR 2; experiment: TLR 2 transcription ratio, AD patient / control PBMCs (qPCR); format: cell-based, human; conditions: Aβ stimulation
Experimental: as §4
(§6) MGAT3 and/or TLR transcription were tested by qPCR in human monocyte cells treated with curcuminoids and compared the results to those treated with vehicle (Table 7). As discussed above, activation or up-regulation of macrophage MGAT3 or TLR's results in many functional outcomes, including the enhancement of […] and removal of Aβ, increased apoptosis, secretion of inflammatory cytokines, and other anti-AD antimicrobial activities. […] Thus, the ratio of MGAT3 or TLR transcription upon Aβ stimulation of human monocytes versus vehicle treatment provides an indicator and sensitive method to test the in vitro efficacy of drug candidates. […] The relative biological activity of the curcumin analogs in AD patient and control cells was ascertained in the in vitro Aβ assay described above (see Example 2).

[5] = Chemical stability (H2O, pH 7.4); format: physicochemical
[6] = tested on: VDR; experiment: VDR gene expression by qPCR in U-937 human monocytic cells treated with curcumins plus Aβ; format: cell-based
Experimental: as §1, §2, §3, §4, §5

[7] = tested on: TLR 5; experiment: TLR 5 transcription ratio, AD patient / control PBMCs (qPCR); format: cell-based, human; conditions: Aβ stimulation
Experimental: as §4
(§7) MGAT3 and/or TLR transcription were tested by qPCR in human monocyte cells treated with curcuminoids and compared the results to those treated with vehicle (Table 7). As discussed above, activation or up-regulation of macrophage MGAT3 or TLR's results in many functional outcomes, including the enhancement of […] and removal of Aβ, increased apoptosis, secretion of inflammatory cytokines, and other anti-AD antimicrobial activities. […]

[8] = Metabolic stability in human liver microsomes; format: in vitro ADME; conditions: human, read-out: Half life, t1/2 HLM
[9] = tested on: TLR2; experiment: TLR2 gene expression by qPCR in U-937 human monocytic cells treated with curcumins plus Aβ; format: cell-based; conditions: human monocytic cells (U-937), curcumin plus Aβ
Experimental: as §1, §2, §3
as §4, with “Data from the curcumin concentration range are plotted in order to determine EC50 values (concentrations producing one-half maximal stimulant activity), which are used for comparisons of potency between different compounds.” left out, “changes. […]” for “changes.”

[10] = Anti-oxidant activity
[11] = tested on: TLR 8; experiment: TLR 8 transcription ratio, AD patient / control PBMCs (qPCR); format: cell-based, human; conditions: Aβ stimulation
Experimental: as §4, §7

[12] = tested on: MGAT3; experiment: MGAT3 gene expression by qPCR in U-937 human monocytic cells treated with curcumins plus Aβ; format: cell-based; conditions: human monocytic cells (U-937), curcumin plus Aβ
Experimental: as §1, §2
as §3, with “All reactions are performed in triplicate. Reactions are typically run with 40 cycles of 95° C. (10 sec) and 58° C. (30 sec).” left out, “products.” for “products. Reaction conditions are modified as needed depending on initial test results. ‘Working’ assays are selected based on clear RNA-dependent amplification and absence of product in ‘ntc’ reactions. The following assay primers are used:”
qPCR reactions of cultured monocyte cDNAs. […] SYBR-Green reactions were run on a Continuous Fluorescence real-time thermocycler and analyzed. Cycle threshold (Ct) values are recorded for each replicate reaction, and are then averaged and normalized against mean Ct values from one or more control genes. Fold-expression differences relative to untreated cells are determined using the 2^−ΔΔCt method as previously described. […] Data are also evaluated for each gene with regard to sensitivity, maximally effective concentration of curcuminoid, response to Aβ, and overall magnitude of fold-expression changes. […]

[13] = Average solubility; format: physicochemical
[14] = tested on: TLR 3; experiment: TLR 3 transcription ratio, AD patient / control PBMCs (qPCR); format: cell-based, human; conditions: Aβ stimulation
Experimental: as §4, §6

[15] = human monocytic cells (U-937), curcumin plus Aβ

For `O=C(/C=C(O)/C=C/c1ccc(O)cc1)/C=C/c1ccc(O)cc1` [Compound 1, 5-Hydroxy-1,7-bis-(4-hydroxy-phenyl)-hepta-1,4,6-trien-3-one, reference compound], the “TLR3 expression response (in words)” value ([1]; U-937, plus Aβ (FIG. 3)) was “limited response”, the “Relative gene expression TLR3, increased expression relative to control cells” value [1, 15] was “+ ((+) <20-fold)” and the half-life [2] was 4 min. The “Relative ratio of MGAT3 transcription in AD patient / control PBMC's” value [3] was “++ ((++) indicates a ratio of 1.5-2.0)”, the “Relative ratio of TLR 2 transcription in AD patient / control PBMC's” value [4] was “TLR 2 + ((+) indicates a ratio of 1.0-1.5)” and the half-life ([5]; water (aqueous solution), pH 7.4, read-out: Chemical stability t1/2 pH 7.4 (converted)) was 14 min. For the same compound, the half-life ([5]; water, H2O, read-out: Chemical stability t1/2 H2O (converted)) was 60 min, the “VDR normalized expression response (in words)” value ([6]; human monocytes, plus Aβ) was “modest increases” and the “Relative gene expression VDR, increased expression relative to control cells” value [6, 15] was “+ ((+) <20-fold)”. The “Relative ratio of TLR 5 transcription in AD patient / control PBMC's” value [7] was “TLR 5 +++ ((+++ to ++++) indicates a ratio of 2.0 and above)”, the half-life [8] was 16.4 min and the “Relative gene expression TLR2, increased expression relative to control cells” value [9] was “+ ((+) <20-fold)”. The IC50 [10] was over 250 µM, the “Relative ratio of TLR 8 transcription in AD patient / control PBMC's” value [11] was “TLR 8 + ((+) indicates a ratio of 1.0-1.5)” and the “Relative gene expression MGAT3, increased expression relative to control cells” value [12] was “+ ((+) <20-fold)”. For the same compound, the “Avg. Solubility” value [13] was “insol” and the “Relative ratio of TLR 3 transcription in AD patient / control PBMC's” value [14] was “TLR 3 ++ ((++) indicates a ratio of 1.5-2.0)”.
